16 molecules from ChEMBL document CHEMBL5579820, “New insights into butyrylcholinesterase: Pharmaceutical applications, selective inhibitors and multitarget-directed ligands” (Eur J Med Chem, 2024) can be followed below.

Molecules are shown by their SMILES. Values joined by “and” are separate entries in the source; they are usually repeats but may differ in a detail not shown here. Equal entries are not always repeated.

As a reminder, the IC50 is the concentration at which inhibition is half-maximal. As a reminder, the inhibition is the change of the read-out against control, counted positive when it falls.

Assay [1] has as its target T1, Cholinesterase (Equus caballus, UniProt P81908). The experiment in a line: Inhibition of equine BuChE.
The target of assay [2] is T2, Acetylcholinesterase (Electrophorus electricus, UniProt O42275). As to the kind of experiment: Inhibition of electric eel AChE.
T2 sequence (O42275 whole entry): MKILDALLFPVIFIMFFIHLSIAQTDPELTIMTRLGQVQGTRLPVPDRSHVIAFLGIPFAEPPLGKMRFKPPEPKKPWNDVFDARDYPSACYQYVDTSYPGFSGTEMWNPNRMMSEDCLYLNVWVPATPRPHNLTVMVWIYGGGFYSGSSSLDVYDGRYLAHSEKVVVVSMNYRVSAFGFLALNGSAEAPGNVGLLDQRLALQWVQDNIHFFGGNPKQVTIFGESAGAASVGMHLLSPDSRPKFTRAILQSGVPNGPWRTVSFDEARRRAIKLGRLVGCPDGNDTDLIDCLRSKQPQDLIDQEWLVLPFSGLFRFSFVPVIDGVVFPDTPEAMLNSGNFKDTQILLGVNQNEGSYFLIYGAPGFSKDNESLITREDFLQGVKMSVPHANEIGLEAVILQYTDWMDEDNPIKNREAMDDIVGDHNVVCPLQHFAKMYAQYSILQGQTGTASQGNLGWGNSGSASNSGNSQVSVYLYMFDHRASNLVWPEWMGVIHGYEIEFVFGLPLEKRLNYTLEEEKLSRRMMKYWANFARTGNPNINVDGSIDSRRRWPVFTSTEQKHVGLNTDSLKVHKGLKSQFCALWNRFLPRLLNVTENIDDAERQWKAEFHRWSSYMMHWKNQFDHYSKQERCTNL
For assay [3], the target named is T3, Amine oxidase [flavin-containing] A (Homo sapiens, UniProt P21397).
T3 sequence (P21397 whole entry): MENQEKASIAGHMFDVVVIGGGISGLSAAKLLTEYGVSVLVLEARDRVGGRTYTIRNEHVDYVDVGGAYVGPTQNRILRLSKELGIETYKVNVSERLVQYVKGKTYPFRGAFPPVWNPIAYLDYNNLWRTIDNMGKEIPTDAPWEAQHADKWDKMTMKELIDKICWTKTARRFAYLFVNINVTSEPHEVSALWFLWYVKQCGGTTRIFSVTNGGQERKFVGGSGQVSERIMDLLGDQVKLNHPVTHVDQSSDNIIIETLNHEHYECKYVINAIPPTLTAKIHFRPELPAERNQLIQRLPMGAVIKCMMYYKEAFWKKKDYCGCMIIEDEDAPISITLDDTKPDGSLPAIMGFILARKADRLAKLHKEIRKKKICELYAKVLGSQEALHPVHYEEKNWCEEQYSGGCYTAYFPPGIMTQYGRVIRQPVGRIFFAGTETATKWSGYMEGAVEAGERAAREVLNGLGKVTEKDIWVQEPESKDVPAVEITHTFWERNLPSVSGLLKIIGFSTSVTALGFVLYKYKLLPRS
As to the kind of experiment: Inhibition of human recombinant MAO-A using kynuramine as substrate by incubated for 75 mins by spectrophotometric analysis.

For assay [4], the target named is T4, Acetylcholinesterase (Homo sapiens, UniProt P22303). The experiment in a line: Inhibition of human AChE using acetylthiocholine iodide as substrate after 15 mins by Ellman's method.
T4 sequence (P22303 whole entry): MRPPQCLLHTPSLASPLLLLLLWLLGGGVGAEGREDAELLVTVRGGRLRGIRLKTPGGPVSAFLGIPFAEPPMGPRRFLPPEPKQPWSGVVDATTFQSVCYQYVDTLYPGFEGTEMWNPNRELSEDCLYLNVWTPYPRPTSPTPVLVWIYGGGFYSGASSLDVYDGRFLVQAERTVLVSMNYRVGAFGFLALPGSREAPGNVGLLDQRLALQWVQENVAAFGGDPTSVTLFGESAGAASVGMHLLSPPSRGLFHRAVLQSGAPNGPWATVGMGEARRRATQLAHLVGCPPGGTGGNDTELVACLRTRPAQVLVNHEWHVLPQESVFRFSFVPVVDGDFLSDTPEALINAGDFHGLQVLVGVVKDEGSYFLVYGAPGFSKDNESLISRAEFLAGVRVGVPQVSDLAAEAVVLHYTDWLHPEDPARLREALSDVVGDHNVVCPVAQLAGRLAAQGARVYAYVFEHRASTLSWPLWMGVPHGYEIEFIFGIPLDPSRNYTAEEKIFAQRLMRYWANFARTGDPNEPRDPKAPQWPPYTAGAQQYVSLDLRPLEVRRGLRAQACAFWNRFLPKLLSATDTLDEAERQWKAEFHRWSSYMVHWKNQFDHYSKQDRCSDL
The nature of assay [5]: Selectivity index, ratio of IC50 for electric eel AChE to IC50 for equine serum BuChE.
For assay [6], the target named is T2, Acetylcholinesterase. As to the kind of experiment: Inhibition of electric eel AChE using acetylthiocholine iodide as substrate after 60 mins by Ellman's method. In general terms: In Ellman's method for cholinesterases, released thiocholine reacts with DTNB.
In assay [7] the target is T1, Cholinesterase. The experiment in a line: Inhibition of equine serum BuChE by Ellman's method.
Assay [8] in a line: Selectivity index, ratio of IC50 for human erythrocyte AChE to IC50 for equine BuChE.
Assay [9] addresses T5, Cholinesterase (Homo sapiens, UniProt P06276). As to the kind of experiment: Inhibition of human BChE using butyrylthiocholineiodide as substrate at 10 uM by Ellman's method relative to control.
Assay [10] is described as follows: Selectivity index, ratio of IC50 for human AChE using acetylthiocholine iodide as substrate to IC50 for equine serum BuChE using butyrylthiocholine iodide as substrate.
Assay [11] has as its target Acetylcholinesterase (Electrophorus electricus) (UniProt O42275). As to the kind of experiment: Inhibition of electric eel AChE using acetylthiocholine iodide as substrate at 50 uM by Ellman's method relative to control.
For assay [12], the target named is T4, Acetylcholinesterase.
The target of assay [13] is Cholinesterases; ACHE & BCHE (Homo sapiens) (UniProt P06276+P22303). As to the kind of experiment: Selectivity index, ratio of IC50 for inhibition of human AChE to IC50 for inhibition of human BChE. It is filed as protein assay.
Chain of Cholinesterases; ACHE & BCHE (Homo sapiens) (P06276 whole entry, looked up): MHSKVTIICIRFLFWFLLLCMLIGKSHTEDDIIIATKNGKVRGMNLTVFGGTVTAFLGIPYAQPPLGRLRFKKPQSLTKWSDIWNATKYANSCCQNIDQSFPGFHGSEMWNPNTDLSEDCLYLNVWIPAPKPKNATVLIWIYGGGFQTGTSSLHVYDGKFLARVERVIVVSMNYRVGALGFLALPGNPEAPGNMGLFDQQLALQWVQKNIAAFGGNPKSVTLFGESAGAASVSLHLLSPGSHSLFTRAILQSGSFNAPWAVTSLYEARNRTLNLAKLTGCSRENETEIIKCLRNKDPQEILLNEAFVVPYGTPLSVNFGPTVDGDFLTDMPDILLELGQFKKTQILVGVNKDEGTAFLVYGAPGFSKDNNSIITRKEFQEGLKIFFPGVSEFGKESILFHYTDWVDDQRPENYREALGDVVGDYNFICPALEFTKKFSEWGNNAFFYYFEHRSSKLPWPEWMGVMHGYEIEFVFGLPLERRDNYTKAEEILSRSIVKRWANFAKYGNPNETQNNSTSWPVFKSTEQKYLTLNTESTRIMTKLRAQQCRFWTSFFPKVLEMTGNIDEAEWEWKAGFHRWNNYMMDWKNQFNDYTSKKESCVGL
Chain of Cholinesterases; ACHE & BCHE (Homo sapiens) (P22303 whole entry, looked up): as the sequence (P22303 whole entry) above
Assay [14] addresses T5, Cholinesterase.
Assay [15] has as its target T6, Protein deacetylase HDAC6 (Homo sapiens, UniProt Q9UBN7).
T6 sequence (Q9UBN7 whole entry): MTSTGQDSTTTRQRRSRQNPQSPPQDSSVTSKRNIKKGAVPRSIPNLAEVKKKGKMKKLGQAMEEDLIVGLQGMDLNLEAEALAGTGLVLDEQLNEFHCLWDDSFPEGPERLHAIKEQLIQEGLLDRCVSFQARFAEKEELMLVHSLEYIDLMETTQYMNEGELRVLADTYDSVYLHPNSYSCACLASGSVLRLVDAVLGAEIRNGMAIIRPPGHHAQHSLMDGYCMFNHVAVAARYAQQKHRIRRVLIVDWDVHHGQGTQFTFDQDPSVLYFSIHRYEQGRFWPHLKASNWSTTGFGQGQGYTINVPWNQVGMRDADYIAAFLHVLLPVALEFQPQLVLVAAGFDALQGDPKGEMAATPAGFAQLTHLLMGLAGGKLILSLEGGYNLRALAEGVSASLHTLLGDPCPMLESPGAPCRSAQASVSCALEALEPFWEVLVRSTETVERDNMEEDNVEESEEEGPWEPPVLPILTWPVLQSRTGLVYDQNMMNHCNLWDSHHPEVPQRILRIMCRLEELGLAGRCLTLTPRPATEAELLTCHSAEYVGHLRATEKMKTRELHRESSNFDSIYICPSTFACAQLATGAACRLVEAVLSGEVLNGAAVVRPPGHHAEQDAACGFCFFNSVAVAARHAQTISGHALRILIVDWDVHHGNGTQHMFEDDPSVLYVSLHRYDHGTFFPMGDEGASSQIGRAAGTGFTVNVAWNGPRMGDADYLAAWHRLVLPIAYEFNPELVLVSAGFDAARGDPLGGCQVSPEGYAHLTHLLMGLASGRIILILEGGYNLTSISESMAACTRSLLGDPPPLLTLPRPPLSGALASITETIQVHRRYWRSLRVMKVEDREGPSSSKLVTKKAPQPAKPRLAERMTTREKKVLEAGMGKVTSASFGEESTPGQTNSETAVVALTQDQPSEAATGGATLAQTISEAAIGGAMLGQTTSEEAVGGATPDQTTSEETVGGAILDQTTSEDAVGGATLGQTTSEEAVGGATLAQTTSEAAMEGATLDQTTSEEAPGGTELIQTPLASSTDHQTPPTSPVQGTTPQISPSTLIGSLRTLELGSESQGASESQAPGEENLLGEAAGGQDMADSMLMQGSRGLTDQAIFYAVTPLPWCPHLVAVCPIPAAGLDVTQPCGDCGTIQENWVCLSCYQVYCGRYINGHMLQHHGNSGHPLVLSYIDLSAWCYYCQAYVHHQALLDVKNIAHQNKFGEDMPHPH
The experiment in a line: Inhibition of HDAC6 (unknown origin).

The target in assay [16] is T5, Cholinesterase. The experiment in a line: Inhibition of human BChE using butyrylthiocholine iodide as substrate preincubated for 15 min followed by substrate addition measured after 40 min by Ellman's method.
The target in assay [17] is Cholinesterase (Equus caballus) (UniProt P81908). The experiment in a line: Inhibition of equine BChE at 100 uM by Ellman's method relative to control.
Chain of Cholinesterase (Equus caballus) (P81908 whole entry): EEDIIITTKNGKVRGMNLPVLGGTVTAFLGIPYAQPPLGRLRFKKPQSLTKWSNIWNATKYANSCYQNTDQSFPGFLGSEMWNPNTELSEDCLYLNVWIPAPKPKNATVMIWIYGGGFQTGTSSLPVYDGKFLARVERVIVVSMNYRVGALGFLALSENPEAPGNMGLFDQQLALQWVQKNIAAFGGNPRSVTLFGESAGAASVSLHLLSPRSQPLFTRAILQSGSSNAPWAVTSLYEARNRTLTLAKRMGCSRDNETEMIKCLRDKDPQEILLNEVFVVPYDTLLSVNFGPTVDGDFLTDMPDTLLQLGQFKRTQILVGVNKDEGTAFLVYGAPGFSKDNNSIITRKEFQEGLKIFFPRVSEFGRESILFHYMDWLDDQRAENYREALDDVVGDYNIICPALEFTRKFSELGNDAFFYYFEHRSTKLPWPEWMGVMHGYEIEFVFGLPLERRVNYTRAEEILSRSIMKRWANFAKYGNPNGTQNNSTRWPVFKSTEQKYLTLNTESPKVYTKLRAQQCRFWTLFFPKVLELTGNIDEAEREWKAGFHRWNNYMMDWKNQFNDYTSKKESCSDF

T1 sequence (P81908 whole entry): as above
T5 sequence (P06276 whole entry): as the sequence (P06276 whole entry, looked up) above
Chain of Acetylcholinesterase (Electrophorus electricus) (O42275 24-633 limits assumed): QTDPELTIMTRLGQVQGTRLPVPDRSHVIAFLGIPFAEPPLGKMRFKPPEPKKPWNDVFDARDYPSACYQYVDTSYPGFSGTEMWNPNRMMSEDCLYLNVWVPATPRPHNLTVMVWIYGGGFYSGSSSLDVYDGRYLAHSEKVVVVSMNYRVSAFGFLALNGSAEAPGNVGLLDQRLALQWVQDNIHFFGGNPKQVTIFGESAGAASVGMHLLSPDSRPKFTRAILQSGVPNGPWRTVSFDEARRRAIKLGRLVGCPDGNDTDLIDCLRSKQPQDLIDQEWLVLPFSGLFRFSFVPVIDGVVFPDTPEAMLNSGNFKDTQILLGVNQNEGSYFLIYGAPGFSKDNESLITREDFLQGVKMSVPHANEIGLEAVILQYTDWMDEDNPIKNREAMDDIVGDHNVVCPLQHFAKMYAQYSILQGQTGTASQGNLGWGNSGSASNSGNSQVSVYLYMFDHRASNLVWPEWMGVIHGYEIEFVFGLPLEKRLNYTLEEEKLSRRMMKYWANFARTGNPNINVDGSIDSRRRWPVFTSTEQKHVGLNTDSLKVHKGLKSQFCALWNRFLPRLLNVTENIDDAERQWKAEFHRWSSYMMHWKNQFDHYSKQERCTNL

On to `CN(C)C(=O)Oc1ccc(C(=O)C2CCC(Cc3ccccc3)CC2)c(OC(=O)N(C)C)c1` (stereo not given), for which the concentration for half-maximal inhibition (IC50) came to 0.53 µM on Cholinesterase [1] and 7.8 µM against Acetylcholinesterase [2].
`[O-]/[N+](=C\c1ccc2cccc(O)c2n1)Cc1ccccc1`: the half-inhibitory concentration (IC50) in assay [3] was greater than 100 µM.
Consider `O=C(NCCCCCCNc1c2c(nc3ccccc13)CCCC2)c1ccccc1O`, for which the IC50 against Acetylcholinesterase [4] worked out at 0.02 µM; on Cholinesterase [1], 0.01 µM.
Turning to `CON(C)C(=O)Oc1cc(C)ccc1C(=O)NCCc1c[nH]c2ccc(Cl)cc12`, the IC50 against Cholinesterase [1] is 0.057 µM; at Acetylcholinesterase [2], greater than 100 µM. The Ratio IC50 in assay [5] was greater than 1750.
With `CCC(=O)N(CC(=O)Nc1ccccc1C)Cc1ccccc1`, the IC50 at Acetylcholinesterase [6] was greater than 1610 µM; against Cholinesterase [7], 25.9 µM.
Take `CC(C)(C)c1cc(CNCCNc2c3c(nc4ccccc24)CCCCC3)cc(C(C)(C)C)c1O`: in assay [8], the Ratio IC50 was 23.
With `COc1cccc(C(=O)OCc2ccccc2)c1OC(=O)N(C)OC`, the IC50 is 0.99 µM on Cholinesterase [1] and greater than 100 µM at Acetylcholinesterase [2]. In addition, the inhibition against Cholinesterase [9] was determined as 50%.
Take `CCc1ccccc1NC(=O)c1ccc(NS(=O)(=O)c2ccccc2)cc1`: the Ratio IC50 in assay [10] is greater than 1080. The half-inhibitory concentration (IC50) against Cholinesterase [1] is 0.046 µM and 0.04 µM; at Acetylcholinesterase [12], greater than 50 µM. This molecule gave an inhibition in assay [11] of 0.52%.
Regarding `CCN(CC)C(=O)c1ccc2c(c1)nc(Cc1ccc(OC(=O)N3CCC3)cc1)n2CCC(C)C`, the Ratio IC50 in [13] stood at 10. At Cholinesterase [14], the IC50 is 0.006 µM.
Turning to `CCN(CC)Cc1ccccc1CNC(=O)c1cccc(NC(=O)c2cccc(NC(=O)CCCCCCC(=O)NO)c2)c1`, the IC50 in assay [15] came out at 0.0089 µM; against Cholinesterase [16], 0.004 µM.
Take `CCNC(=S)N/N=C/c1c(OC)cc(OC)c2c(-c3ccccc3)c[nH]c12`: the half-maximal inhibitory concentration (IC50) at Cholinesterase [14] was 1.95 µM; against Acetylcholinesterase [12], 59.4 µM.
With `COc1cccc(NC(=O)CN(C)[C@@H](C)C(=O)c2c[nH]c3ccccc23)c1`, the figures for the IC50 against Cholinesterase [14] and on Acetylcholinesterase [12] were 4.24 µM and greater than 100 µM, respectively.
As for `c1ccc(CN2CCC(NCCCCCCn3c4ccccc4c4ccccc43)CC2)cc1`, the IC50 at Cholinesterase [1] was determined as 0.18 µM; against Acetylcholinesterase [2] it was 26.5 µM.
As to `NNc1nc(NN)nc(NCCNC(=O)c2cc3c([nH]c4ccccc43)c(-c3ccccc3)n2)n1`, it took 1 µM to reach half-maximal inhibition against Cholinesterase [1] (IC50). In addition, the inhibition in [17] was determined as 29.5%.
In the case of `CCC(CC)CN[C@H](Cc1c[nH]c2ccccc12)C(=O)NCCN1CCc2ccccc2C1`, the IC50 on Acetylcholinesterase [2] was greater than 10 µM; at Cholinesterase [14], 0.3 µM.
Consider `CCCCCCNC(=O)Oc1ccc2[nH]cc(CCNC(=O)c3ccccc3Nc3ccccc3)c2c1`, for which the 50% inhibitory concentration (IC50) against Cholinesterase [1] is 0.007 µM; at Acetylcholinesterase [2], greater than 100 µM. In addition, the Ratio IC50 in [5] is greater than 14300.
